Earlier results, collected in publication PMC10656230, “Disruption of the productive encounter complex results in dysregulation of DIAPH1 activity” (The Journal of Biological Chemistry, 2023).

How the values were obtained:
[1] = tested on: DID; settings: DAD without RRKR motif vs
Text: Chemical shifts (δ) and cross peak intensities (I) were monitored by using heteronuclear single–quantum coherence (^1H-^15N HSQC) NMR spectroscopy ([38]) (Fig. S1A). […] Negligible perturbations occurred beyond a 1:1 mole ratio, indicating a 1:1 stoichiometry for the complex. […] H ...

[2] = tested on: DID R278E; settings: DID mutation R278E, no 2- to 3-fold decrease
Text: (§1) Our findings identify E326 and E327 as critical for binding (Figs. 3D, 4 and S1). The E326 and E327 acidic patch is located greater than 30 Å away from the Rho GTPase binding site and represents a new surface for DIAPH1 regulation (Fig. S4B) ([25]). Interruption of the electrostatic interaction between the basic RRKR motif an ...

[3] = tested on: DID E273K; settings: DID mutation E273K, no 2- to 3-fold decrease
Text: as §1

Sequence: DETGVMDSLLEALQSGAAFRRKRGPRQAN [DAD]
- decrease in DID-DAD binding affinity on removal of the RRKR motif of DAD [1]: 5 fold
- decrease in DID-DAD binding affinity [2]: did not
- decrease in DID-DAD binding affinity [3]: did not
